Data from ChEMBL document CHEMBL1154640, “Application of desirability-based multi(bi)-objective optimization in the design of selective arylpiperazine derivates for the 5-HT1A serotonin receptor” (Eur J Med Chem, 2009).
pKi: −log10 of the molar value.

What was measured:
[1] = molecular target: T1, 5-hydroxytryptamine receptor 1A (Homo sapiens, UniProt P08908); test: Displacement of [3H]8-OH-DPAT from human recombinant 5-HT1A receptor expressed in HEK293 cells after 120 mins; type: cell-based
T1 sequence (P08908 whole entry): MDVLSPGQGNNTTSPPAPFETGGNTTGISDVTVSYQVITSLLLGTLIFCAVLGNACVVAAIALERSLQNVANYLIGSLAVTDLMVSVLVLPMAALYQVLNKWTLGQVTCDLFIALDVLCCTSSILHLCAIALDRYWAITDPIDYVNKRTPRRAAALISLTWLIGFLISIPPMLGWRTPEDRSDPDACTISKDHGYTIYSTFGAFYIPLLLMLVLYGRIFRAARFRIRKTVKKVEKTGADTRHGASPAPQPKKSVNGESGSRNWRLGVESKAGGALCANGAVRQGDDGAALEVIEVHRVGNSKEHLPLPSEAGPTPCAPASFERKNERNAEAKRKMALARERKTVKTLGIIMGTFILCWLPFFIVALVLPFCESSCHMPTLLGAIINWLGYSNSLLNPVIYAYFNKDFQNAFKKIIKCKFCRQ

[2] = molecular target: 5-hydroxytryptamine receptor 2A (Rattus norvegicus, UniProt P14842); test: Displacement of [3H]ketanserin from 5-HT2A receptor in Wistar Hannover rat brain cortex membrane
5-hydroxytryptamine receptor 2A, sequence (P14842 whole entry): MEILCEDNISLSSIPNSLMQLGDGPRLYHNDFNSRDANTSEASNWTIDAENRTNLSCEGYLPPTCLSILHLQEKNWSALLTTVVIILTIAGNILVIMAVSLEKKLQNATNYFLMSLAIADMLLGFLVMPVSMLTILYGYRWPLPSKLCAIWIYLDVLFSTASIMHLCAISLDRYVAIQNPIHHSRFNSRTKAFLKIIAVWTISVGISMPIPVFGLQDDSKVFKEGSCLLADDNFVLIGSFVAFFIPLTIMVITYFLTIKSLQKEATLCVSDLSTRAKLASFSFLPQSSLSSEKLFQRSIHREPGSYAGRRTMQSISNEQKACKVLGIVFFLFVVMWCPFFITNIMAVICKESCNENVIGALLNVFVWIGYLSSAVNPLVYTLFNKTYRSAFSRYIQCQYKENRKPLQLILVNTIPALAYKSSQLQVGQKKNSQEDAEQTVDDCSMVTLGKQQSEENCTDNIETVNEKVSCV

SMILES | pKi [1] | pKi [2]
O=c1c2ccccc2c(=O)n(-c2ccccc2)n1CCCN1CCN(c2cccc(Cl)c2)CC1 | 6.38 | 6.18
O=c1ccc(=O)n(-c2ccccc2)n1CCCCN1CCN(c2cccc(Cl)c2)CC1 | 7.30 | 5.74
COc1ccccc1N1CCN(CCCn2c(=O)ccc(=O)n2-c2ccccc2)CC1 | 7.27 | 5.67
O=c1c2ccccc2c(=O)n(-c2ccccc2)n1CCCCN1CCN(c2cccc(Cl)c2)CC1 | 6.40 | 6.24
O=c1c2ccccc2ncn1CCCN1CCN(c2cccc(Cl)c2)CC1 | 6.63 | 7.80

Next, values leading:

pKi [1] | pKi [2] | SMILES
7.44 | 6.25 | COc1ccccc1N1CCN(CCCCn2cnc3ccccc3c2=O)CC1
7.37 | 6.43 | COc1ccccc1N1CCN(CCCCn2c(=O)c3ccccc3c(=O)n2-c2ccccc2)CC1
7.52 | 6.52 | COc1ccccc1N1CCN(CCCn2c(=O)c3ccccc3c(=O)n2-c2ccccc2)CC1
7.96 | 5.84 | COc1ccccc1N1CCN(CCCCn2c(=O)ccc(=O)n2-c2ccccc2)CC1
7.30 | 7.17 | O=c1c2ccccc2ncn1CCCCN1CCN(c2cccc(Cl)c2)CC1
6.69 | 6.57 | O=c1ccc(=O)n(-c2ccccc2)n1CCCN1CCN(c2cccc(Cl)c2)CC1
7.00 | 6.34 | COc1ccccc1N1CCN(CCCn2cnc3ccccc3c2=O)CC1
